From US20030105165A1, “Gap junctions and EDHF” (priority 2001, published 2003)
Read-outs that look alike come from different tables or passages of the source.

What was measured:
[1] = tested on: smooth muscle cAMP levels; test: Radioimmunoassay of cAMP in iliac artery rings; format: cell-based, rabbit; settings: for Increase (elevation) in smooth muscle cAMP levels: rings incubated with L-NAME and indomethacin, endothelium-dependent
Method: (§1) Radioimmunoassay. Multiple rings from the same artery were incubated in oxygenated Holmans buffer containing L-NAME (300 μM) and indomethacin (10 μM) for 40 min at 37° C. in the presence or absence of 18α-GA (100 μM). Rings were frozen in liquid N2 at time points up to 180 s following addition of ACh or A23187 and stored at −70° C. before extraction of cAMP or cGMP in 6% trichloroacetic acid, followed by neutralization with water saturated diethyl ether and subsequent radioimmunoassay (Amersham UK). PE (1 μM) was added 3 min before the initial control point and control experiments were performed with endothelium-denuded rings. Nucleotide levels were expressed relative to protein content (27).

[2] = tested on: sandwich preparations of rabbit iliac artery; test: 'Sandwich' bioassay preparations of iliac artery (endothelium-intact donor ring, denuded detector strip); format: cell-based
Source text: ‘Sandwich’ preparations. Rings of iliac artery 2-3 mm wide were denuded of endothelium, cut into strips and pierced ˜2 mm from each end using a Monoject needle (0.9 mm×40 mm). These strips were introduced into the lumen of rings of endothelium-intact iliac artery 4-5 mm wide and the tissues sutured together. Composite preparations were then mounted in a Mulvany Multi Myograph (Danish Myo Technology) with the pierced denuded strips hooked onto the large vessel mountings. Tension was initially set at ˜0.25 g and readjusted during an equilibrium period of 1 h. The preparations were then incubated for 40 min with L-NAME (300 μM) and indomethacin (10 μM), constricted with PE (1 or 3 μM), and concentration-response curves constructed for ACh in the presence/absence of IBMX (20 μM), or A23187 in the presence/absence of IBMX (20 μM) or 2′5′DDA (200 μM).
(§2) Statistical Analysis All data are given as mean±SEM, where n denotes the number of animals studied for each data point, and were compared by the Student's t-test for paired or unpaired data as appropriate. P<0.05 was considered as significant. Concentration-response curves were assessed by one-way analysis of variance (ANOVA) followed by the Bonferroni multiple comparisons test.

[3] = tested on: rabbit iliac artery rings; format: cell-based; settings: for Effect on PE contractions: 2′,5′-DDA 200 μM, glibenclamide 10 μM, charybdotoxin 100 nM plus apamin 300 nM
Method: (§3) Isolated Ring Preparations. Male New Zealand white rabbits (2-2.5 kg) were sacrificed with sodium pentobarbitone (120 mg/kg; i.v.) and the iliac artery removed and transferred to cold Holman's buffer of the following composition (mM): 120 NaCl, 5 KCl, 2.5 CaCl2, 1.3 NaH2PO4, 25 NaHCO3, 11 glucose, and 10 sucrose. The vessels were stripped of adherent tissue, and rings 2-3 mm wide cut and suspended in organ chambers containing gassed (95% 02, 5% CO2, pH 7.4) buffer at 37 C. Tension was set at 0.25 g and during an equilibrium period of 1 h the tissues were repeatedly washed with fresh buffer and tension readjusted following stress relaxation. Endothelium-intact rings were incubated for 40 min with N^G-nitro-L-arginine methyl ester (L-NAME, 300 μM) and indomethacin (10 μM) and following constriction with phenylephrine (PE) cumulative concentration-relaxation curves to ACh or A23187 were constructed. Some preparations were preincubated for 40 min with either 2′5′-dideoxyadenosine (2′5′-DDA, 200 μM), 3-isobutyl-1-methylxanthine (IBMX, 20 μM), 18α-GA (100 μM), glibenclamide (10 μM), the combination of charybdotoxin (100 nM) and apamin (300 nM), or the combination of charybdotoxin (100 nM), apamin (300 nM) and IBMX (20 μM). Concentration-response curves to ACh and A23187 were also constructed for endothelium-denuded rings in the absence/presence of IBMX (20 μM). In experiments with IBMX the concentration of PE used to induce tone was increased from 1 to 3 μM. All reagents were obtained from Sigma, U.K.

[4] = tested on: rabbit iliac artery rings; test: EDHF-type relaxation of isolated rabbit iliac artery rings constricted with phenylephrine; format: cell-based; settings: for EC50: Oryctolagus cuniculus; for Maximal EDHF-type relaxations, % of PE-induced tone: approximate, at concentrations ~3 μM; for Maximal EDHF-type relaxations, % of PE-induced tone / Maximal EDHF-type relaxation, % of PE-induced tone (control): L-NAME 300 μM + indomethacin 10 μM
Method: as §3, with “The vessels were stripped of adherent tissue, and rings 2-3 mm wide cut and suspended in organ chambers containing gassed (95% 02, 5% CO2, pH 7.4) buffer at 37 C. Tension was set at 0.25 g and during an equilibrium period of 1 h the tissues were repeatedly washed with fresh buffer and tension readjusted following stress relaxation.” left out
as §2

[5] = tested on: subintimal smooth muscle cells of rabbit iliac artery strips; test: Membrane potential experiments (sharp microelectrode) in iliac artery strips; format: cell-based
Method: Membrane Potential Experiments. Iliac artery strips were held adventitia down in an oxygenated (95% O2, 5% CO2) organ chamber by a Harp slice grid (ALA Scientific Instruments, USA) superfused (2 ml/min at 37° C.) with Holmans solution containing 300 μM L-NAME and 10 μM indomethacin. Transmembrane potential was recorded with glass capillary microelectrodes (tip resistance of 60-110 M[…] filled with 3M KCl and connected to the headstage of a SEC-10LX amplifier (NPI Electronic, Germany). Successful impalements were achieved following a sudden negative drop in potential from baseline and a stable signal for at least 2 min. To ensure recordings were made from smooth muscle cells the microelectrode was advanced into the subintima using a PCS-5000 micromanipulator (Burleigh Instruments, UK) until there had been 2-3 such negative deflections. After first obtaining control responses to ACh by direct administration into the organ chamber under conditions of no flow, the strips were washed with fresh buffer before incubation with either 200 μM […] alone or the combination of 200 μM 2′,3′-DDA plus 30 μM IBMX followed by repeat exposure to ACh.

[6] = tested on: gap junctions in isolated rabbit femoral arteries; test: Dye transfer (calcein AM) from endothelium to media in perfused femoral arteries; format: cell-based; settings: for Space constant of decay of medial fluorescence: calcein AM, control 8.54 μm; for Dye within the vessel wall after intraluminal perfusion: 10 μM dye perfused through the lumen for 30 min
Method: Dye Transfer. […] In control experiments arteries were perfused with 10 μM calcein, which is membrane impermeable. The vessels were subsequently removed from the myograph and fixed in 0.1 M PBS containing 0.2% glutaraldehyde and 2% formalin for 90 min before cryopreservation in OCT compound (Agar Scientific, […], UK), cooled by liquid N2. Cryosections of transverse rings (10 μm thick) were prepared and mounted onto poly-L-lysine-coated slides under Fluorsave (Calbiochem) and imaged with a TCS four-dimensional confocal laser scanning system (Leica) with the filters set for 490 nm excitation and 525 nm emission. A gallery of several images was collected at 0.5-μm steps for each sample followed by image processing by using […] software to obtain a maximum projection image.

cGMP levels = test: Radioimmunoassay of cGMP in iliac artery rings; format: cell-based, rabbit; settings: in the presence of L-NAME and indomethacin
Method: as §1

pig coronary artery = settings: cited from earlier work
[7] = endothelium-intact rings, L-NAME + indomethacin, control of IBMX / 2′,5′-DDA series, read-out: EC50 of EDHF-type relaxation (control)
[8] = endothelium-intact rings, control of IBMX / 2′,5′-DDA series

For `C[C@H]1O[C@@H](n2cnc3c(N)ncnc32)C[C@@H]1O` [2′,5′-DDA, 2′,5′-dideoxyadenosine], the “Effect on transient peak in cAMP levels evoked by ACh” value ([1]; 2′,5′-DDA 200 μM, ACh 3 μM) was “abolished”, the “Maximal relaxation to A23187 in sandwich preparations with 2′,5′-DDA, % of PE-induced tone” value ([2]; 2′,5′-DDA 200 μM) was 18.5±9.2% and the “Effect on PE contractions” value [3] was “unaffected”. For the same compound, the “Maximal relaxation to A23187 in presence of 2′,5′-DDA, % of PE-induced tone” value ([4]; 2′,5′-DDA 200 μM, A23187-evoked, endothelium-intact rings) was 40.3±8.3% and the “Maximal relaxation to ACh in presence of 2′,5′-DDA” value ([4]; 2′,5′-DDA 200 μM, ACh-evoked, endothelium-intact rings) was 11.0±1.9%.
With `Nc1ncnc2c1ncn2[C@H]1CC[C@@H](CO)O1` [2′, 3′-DDA, 2′,3′-dideoxyadenoine] the “Attenuation of transmission of electrical changes in endothelial membrane potential into subintimal smooth muscle cells” value ([5]; 200 μM, ACh-evoked) was roughly 75%.
For `Nc1nc2c(nc(Br)n2[C@@H]2O[C@@H]3COP(=O)(O)O[C@H]3[C@H]2O)c(=O)[nH]1` [8-bromo-cGMP], the “Space constant of decay of medial fluorescence” value ([6]; 1 mM nucleotide analogue) was 8.39 ± 0.44 μm.
For `CC1(C)[C@@H](O)CC[C@]2(C)[C@H]3C(=O)C=C4[C@H]5C[C@@](C)(C(=O)O)CC[C@]5(C)CC[C@@]4(C)[C@]3(C)CC[C@@H]12` [18α-GA, 18α-glycyrrhetinic acid], the “Effect on nucleotide (cAMP) accumulation evoked by A23187” value ([1]; 18α-GA 100 μM, A23187 3 μM) was “no significant effect”, the “Effect on transient rise in cAMP levels evoked by ACh” value ([1]; 18α-GA 100 μM, ACh 3 μM) was “abolished” and the “Effect on EDHF-type relaxations evoked by A23187” value ([4]; 18α-GA 100 μM) was “had no effect”. For the same compound, the “Effect on EDHF-type relaxations evoked by ACh” value ([4]; 18α-GA 100 μM) was “effectively abolished”.
With `CNc1ccc2oc(C[C@H]3O[C@@]4(CC[C@H]3C)O[C@H]([C@H](C)C(=O)c3ccc[nH]3)[C@H](C)C[C@H]4C)nc2c1C(=O)O` [A23187] the “Time of peak in cAMP levels” value ([1]; agonist 3 μM, endothelium-intact rings, L-NAME 300 μM + indomethacin 10 μM) was 40 to 50 s, the “Change of cAMP level in endothelium-denuded preparations” value ([1]; endothelium-denuded, basal 3.97±0.49 pmol/mg protein) was “did not significantly increase” and the “Increase (elevation) in smooth muscle cAMP levels” value [1] was 1.5 fold. For the same compound, the “Maximal EDHF-type relaxation in sandwich preparations, % of PE-induced tone” value ([2]; L-NAME 300 μM + indomethacin 10 μM, no modulator) was 52.0±8.0%, the EC50 ([2]; Oryctolagus cuniculus, read-out: EC50 of relaxation in sandwich preparations) was 240 ± 40 nM and the EC50 ([4]; read-out: EC50 of A23187 relaxation (control of charybdotoxin/apamin series)) was 291 ± 128 nM. For the same compound, the EC50 [4, 7] was 328 ± 123 nM, the “Maximal EDHF-type relaxations, % of PE-induced tone” value [4] was roughly 40% and the “Relaxation after endothelial denudation” value ([4]; endothelium-denuded rings) was “abolished”. The “Relaxation in endothelium-denuded rings incubated with IBMX, % of PE-induced tone” value ([4]; endothelium-denuded rings, IBMX 20 μM) was 21.7±3.6%, the “Maximal EDHF-type relaxation, % of PE-induced tone (control)” value [4, 8] was 50.2±5.6% and the “Maximal relaxation to A23187, % of PE-induced tone (control of charybdotoxin/apamin series)” value ([4]; endothelium-intact rings, L-NAME + indomethacin) was 50.0±5.8%. The “Effect on cGMP levels” value (cGMP levels) was “unaltered”.
In the case of `CC(=O)OCC[N+](C)(C)C` [ACh, acetylcholine], the “Increase (elevation) in smooth muscle cAMP levels” value [1] is reported as 1.5 fold, the EC50 [4, 7] is reported as 555 ± 121 nM and the “Maximal EDHF-type relaxations, % of PE-induced tone” value [4] is reported as roughly 40%. For the same compound, the “Maximal EDHF-type relaxation, % of PE-induced tone (control)” value [4, 8] was 36.0±5.0% and the “Subintimal hyperpolarization sustained below baseline” value ([5]; 3 μM Ach, intact endothelium) was roughly 20 mV.
With `CC(C)Cn1c(=O)n(C)c(=O)c2[nH]cnc21` [IBMX, 3-isobutyl-1-methylxanthine] the “Maximal relaxation to A23187 in sandwich preparations with IBMX” value ([2]; IBMX 20 μM) was 70.0±6.50%, the “Space constant of decay of medial fluorescence” value ([6]; 20 μM IBMX) was 11.50±0.80 μm and ≈ 12 μm and the “Maximal relaxation to A23187 in presence of IBMX” value ([4]; IBMX 20 μM, A23187-evoked, endothelium-intact rings, control 50.2%) was 73.0 ± 8.5%. For the same compound, the “Maximal relaxation to ACh in presence of IBMX” value ([4]; IBMX 20 μM, ACh-evoked, endothelium-intact rings, control 36.0%) was 65.5±4.5% and the “Reversal of the 2′,3′-DDA block of hyperpolarization” value ([5]; IBMX 30 μM after 200 μM 2′,3′-DDA) was “completely reversed”.
With `CNC[C@H](O)c1cccc(O)c1` [PE, phenylephrine] the PE-evoked constrictions ([3]; 1 μM PE, L-NAME 300 μM and indomethacin 10 μM, intact endothelium, pooled data) was 2.0 ± 0.1 g and the “Initial tension restored by PE in presence of IBMX” value ([3]; 3 μM PE, IBMX 20 μM, pooled data) was 1.8 ± 0.1 g.
With `O=C(O)CN(CC(=O)O)Cc1cc2c(cc1O)Oc1cc(O)c(CN(CC(=O)O)CC(=O)O)cc1C21OC(=O)c2ccccc21` [calcein] the “Dye within the vessel wall after intraluminal perfusion” value [6] was “only autofluorescence of the internal elastic lamina was evident”.
For `COc1cc2c3cc1Oc1cc(ccc1O)C[C@@H]1c4c(cc(OC)c(O)c4Oc4ccc(cc4)C[C@@H]3N(C)CC2)CC[N+]1(C)C` [d-tubocurarine], the “Effect on endothelial hyperpolarization evoked by 0.5 μM A23187” value (pig coronary artery) is given as “abolished”, the “Effect on mechanical relaxation and endothelium and smooth muscle hyperpolarizations evoked by substance P” value (pig coronary artery) is given as “inhibited” and the “Effect on relaxation and smooth muscle hyperpolarization evoked by 0.5 μM A23187” value (pig coronary artery) is given as “unaffected”.
For `COc1ccc(Cl)cc1C(=O)NCCc1ccc(S(=O)(=O)NC(=O)NC2CCCCC2)cc1` [glibenclamide], the “Effect on PE contractions” value [3] was “unaffected”, the “Effect on EDHF-type relaxations evoked by A23187” value ([4]; glibenclamide 10 μM) was “did not significantly affect” and the “Effect on EDHF-type relaxations evoked by ACh” value ([4]; glibenclamide 10 μM) was “did not significantly affect”.
For calcein AM, the “Dye within the vessel wall after intraluminal perfusion” value [6] was “detected within the vessel wall” and the “Space constant of decay of medial fluorescence (control conditions)” value ([6]; calcein AM 10 μM, L-NAME + indomethacin) was 8.54±0.39 μm.
